# Measurements: PubChem BioAssay (NCI)
#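 Following 48 hours of exposure in 96-well plates, responses at five concentrations were used to interpolate endpoints linearly. GI50 is the concentration that inhibits growth by half. TGI: total growth inhibition.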 The source made the active and inactive calls. Rule as the data show it: active = GI50 below about 0.43 µM; inactive = the rest.
# Tests used:
# Experiment in all cases: NCI-60 cell line screen, 48 h
# NCI-H522 lung = system: NCI-H522 lung
# SF-295 CNS = system: SF-295 CNS
# DU-145 prostate = system: DU-145 prostate
# 786-0 renal = system: 786-0 renal
# EKVX NSCLC = system: EKVX NSCLC
# SK-MEL-28 melanoma = system: SK-MEL-28 melanoma
# HOP-92 NSCLC = system: HOP-92 NSCLC
# SK-OV-3 ovarian = system: SK-OV-3 ovarian
# MDA-MB-435 = system: MDA-MB-435
# COLO 205 colon = system: COLO 205 colon
# MDA-MB-231 breast = system: MDA-MB-231 breast
# SW-620 colon = system: SW-620 colon
# HCC-2998 colon = system: HCC-2998 colon
# HS 578T breast = system: HS 578T breast
# SF-539 CNS = system: SF-539 CNS
# SN12C renal = system: SN12C renal
# T-47D breast = system: T-47D breast
# NCI/ADR-RES ovarian = system: NCI/ADR-RES ovarian
# OVCAR-3 ovarian = system: OVCAR-3 ovarian
# A498 renal = system: A498 renal
# UO-31 renal = system: UO-31 renal
# IGROV1 ovarian = system: IGROV1 ovarian
# LOX IMVI melanoma = system: LOX IMVI melanoma
# MALME-3M melanoma = system: MALME-3M melanoma
# OVCAR-8 ovarian = system: OVCAR-8 ovarian
# CCRF-CEM leukemia = system: CCRF-CEM leukemia
# PC-3 prostate = system: PC-3 prostate
# MCF7 breast = system: MCF7 breast
# SNB-19 CNS = system: SNB-19 CNS
# MDA-N = system: MDA-N
# K-562 leukemia = system: K-562 leukemia
# UACC-257 melanoma = system: UACC-257 melanoma
# CAKI-1 renal = system: CAKI-1 renal
# HCT-116 colon = system: HCT-116 colon
# SK-MEL-5 melanoma = system: SK-MEL-5 melanoma
# HT29 colon = system: HT29 colon
# A549 NSCLC = system: A549 NSCLC
# SK-MEL-2 melanoma = system: SK-MEL-2 melanoma
# HL-60(TB) leukemia = system: HL-60(TB) leukemia
# NCI-H23 lung = system: NCI-H23 lung
# UACC-62 melanoma = system: UACC-62 melanoma
# NCI-H226 lung = system: NCI-H226 lung
# RXF 393 renal = system: RXF 393 renal
# HCT-15 colon = system: HCT-15 colon
# NCI-H460 lung = system: NCI-H460 lung
# HOP-62 NSCLC = system: HOP-62 NSCLC
# SNB-75 CNS = system: SNB-75 CNS
# OVCAR-4 ovarian = system: OVCAR-4 ovarian
# ACHN renal = system: ACHN renal
# KM12 colon = system: KM12 colon
# M14 melanoma = system: M14 melanoma
# SF-268 CNS = system: SF-268 CNS
# U251 CNS = system: U251 CNS
# OVCAR-5 ovarian = system: OVCAR-5 ovarian
# TK-10 renal = system: TK-10 renal
# MOLT-4 leukemia = system: MOLT-4 leukemia
structure (smiles),measurement,setting,value
Cc1ccc(/C=C2\CN(C)CC3=C2NC(=S)NC3c2ccc(C)cc2)cc1 (stereo not given),TGI,NCI-H522 lung,> 100 µM
same,TGI,SF-295 CNS,> 100 µM
same,TGI,DU-145 prostate,> 100 µM
same,TGI,786-0 renal,77.8 µM
same,TGI,EKVX NSCLC,> 100 µM
same,TGI,SK-MEL-28 melanoma,> 100 µM
same,TGI,HOP-92 NSCLC,82.8 µM
same,TGI,SK-OV-3 ovarian,> 100 µM
same,TGI,MDA-MB-435,28.1 µM
same,TGI,COLO 205 colon,46 µM
same,TGI,MDA-MB-231 breast,> 100 µM
same,TGI,SW-620 colon,> 100 µM
same,TGI,HCC-2998 colon,78.9 µM
same,TGI,HS 578T breast,> 100 µM
same,TGI,SF-539 CNS,> 100 µM
same,TGI,SN12C renal,> 100 µM
same,TGI,T-47D breast,> 100 µM
same,TGI,NCI/ADR-RES ovarian,68 µM
same,TGI,OVCAR-3 ovarian,62.5 µM
same,TGI,A498 renal,> 100 µM
same,TGI,UO-31 renal,> 100 µM
same,TGI,IGROV1 ovarian,> 100 µM
same,TGI,LOX IMVI melanoma,> 100 µM
same,TGI,MALME-3M melanoma,> 100 µM
same,TGI,OVCAR-8 ovarian,> 100 µM
same,TGI,CCRF-CEM leukemia,82.4 µM
same,TGI,PC-3 prostate,> 100 µM
same,TGI,MCF7 breast,72.3 µM
same,TGI,SNB-19 CNS,> 100 µM
same,TGI,MDA-N,36.7 µM
same,TGI,K-562 leukemia,56.9 µM
same,TGI,UACC-257 melanoma,62 µM
same,TGI,CAKI-1 renal,> 100 µM
same,TGI,HCT-116 colon,60.1 µM
same,TGI,SK-MEL-5 melanoma,> 100 µM
same,TGI,HT29 colon,80.4 µM
same,TGI,A549 NSCLC,> 100 µM
same,TGI,SK-MEL-2 melanoma,> 100 µM
same,TGI,HL-60(TB) leukemia,61.4 µM
same,TGI,NCI-H23 lung,> 100 µM
same,TGI,UACC-62 melanoma,> 100 µM
same,TGI,NCI-H226 lung,> 100 µM
same,TGI,RXF 393 renal,> 100 µM
same,TGI,HCT-15 colon,> 100 µM
same,TGI,NCI-H460 lung,> 100 µM
same,TGI,HOP-62 NSCLC,> 100 µM
same,TGI,SNB-75 CNS,68 µM
same,TGI,OVCAR-4 ovarian,67.1 µM
same,TGI,ACHN renal,> 100 µM
same,TGI,KM12 colon,39 µM
same,TGI,M14 melanoma,> 100 µM
same,TGI,SF-268 CNS,> 100 µM
same,TGI,U251 CNS,> 100 µM
same,TGI,OVCAR-5 ovarian,> 100 µM
O=C(O)CN1CCN(CC(=O)O)CCN(CC(=O)O)CC1,GI50,TK-10 renal,33100 µM
same,GI50,NCI-H522 lung,8060 µM
same,TGI,NCI-H522 lung,> 70.8 µM
same,outcome,SF-295 CNS,inactive
same,outcome,DU-145 prostate,inactive
same,outcome,786-0 renal,inactive
same,outcome,EKVX NSCLC,inactive
same,outcome,SK-MEL-28 melanoma,inactive
same,outcome,HOP-92 NSCLC,inactive
same,outcome,SK-OV-3 ovarian,inactive
same,outcome,MDA-MB-435,inactive
same,GI50,COLO 205 colon,4770 µM
same,TGI,COLO 205 colon,9.69 µM
same,outcome,MDA-MB-231 breast,inactive
same,outcome,SW-620 colon,inactive
same,outcome,HS 578T breast,inactive
same,outcome,SF-539 CNS,inactive
same,outcome,SN12C renal,inactive
same,outcome,T-47D breast,inactive
same,TGI,NCI/ADR-RES ovarian,> 30.9 µM
same,outcome,NCI/ADR-RES ovarian,inactive
same,TGI,A498 renal,> 75.8 µM
same,outcome,A498 renal,inactive
same,outcome,UO-31 renal,inactive
same,GI50,IGROV1 ovarian,7100 µM
same,outcome,LOX IMVI melanoma,inactive
same,outcome,MALME-3M melanoma,inactive
same,GI50,OVCAR-8 ovarian,22300 µM
same,TGI,OVCAR-8 ovarian,> 24.1 µM
same,TGI,CCRF-CEM leukemia,> 59 µM
same,outcome,CCRF-CEM leukemia,inactive
same,GI50,PC-3 prostate,9040 µM
same,GI50,MCF7 breast,6360 µM
same,outcome,SNB-19 CNS,inactive
same,outcome,MOLT-4 leukemia,inactive
same,GI50,MDA-N,18500 µM
same,TGI,K-562 leukemia,> 21.9 µM
same,GI50,UACC-257 melanoma,71500 µM
same,GI50,HCT-116 colon,6750 µM
same,GI50,SK-MEL-5 melanoma,6790 µM
same,TGI,SK-MEL-5 melanoma,> 23.2 µM
same,GI50,HT29 colon,4400 µM
same,GI50,A549 NSCLC,3550 µM
same,TGI,A549 NSCLC,> 25.4 µM
same,GI50,SK-MEL-2 melanoma,16700 µM
same,TGI,HL-60(TB) leukemia,4.74 µM
same,GI50,NCI-H23 lung,76100 µM
same,GI50,UACC-62 melanoma,8700 µM
same,outcome,NCI-H226 lung,inactive
same,GI50,RXF 393 renal,9940 µM
same,GI50,HCT-15 colon,9440 µM
same,GI50,NCI-H460 lung,4560 µM
same,outcome,HOP-62 NSCLC,inactive
same,outcome,SNB-75 CNS,inactive
same,outcome,OVCAR-4 ovarian,inactive
same,outcome,ACHN renal,inactive
same,GI50,KM12 colon,5450 µM
same,GI50,M14 melanoma,10500 µM
same,outcome,SF-268 CNS,inactive
same,outcome,U251 CNS,inactive
same,outcome,OVCAR-5 ovarian,inactive
